Test results published in US20260297088A1, “A 1,5-DIHYDRO-4H-PYRROLO[3,2-C] PYRIDIN-4-ONE FOR USE IN THE TREATMENT OF CANCER” (ANTARES THERAPEUTICS, INC., priority 2023, published 2026).

Experiments:
[1] = system: BaF3 ASV (EGFR exon 20 ASV Ins V769_D770); experiment: Ba/F3 cell viability (CellTiter-Glo), EGFR exon 20 ASV Ins V769_D770; format: cell-based, murine; conditions: Mus musculus, Ba/F3 EGFR exon 20 ASV Ins V769_D770, 72 hours
Source text: (§1) Cell lines are generated by transducing Ba/F3 cells with retroviruses containing vectors with EGFR WT, EGFR exon 20 NPG Ins D770_N771, EGFR exon 20 ASV Ins V769_D770, EGFR exon 20 SVD Ins D770_N771, or EGFR exon 20 FQEA Ins A763_V764 genes and a puromycin selection marker. Transduced cells are selected with puromycin for 7 days and are then be transferred into culture media without Interleukin 3 (IL3). EGFR WT cells are maintained with supplemental EGF. Surviving cells are confirmed to express EGFR by Western blot and maintained as a pool. The IC50 data are included in Table 6.
(§2) • 1 Cell seeding • 1.1 Cells are harvested from flask into cell culture medium and the cell number counted. • 1.2 Cells are diluted with culture medium to the desired density and 40 L of cell suspension is added into each well of 384-well cell culture plate and the seeding density is 600 cells/well. • 2 Compound preparation and treatment • 2.1 Test compounds are dissolved to 10 mM in a DMSO stock solution. 45 µL of stock solution is transferred to a 384 polypropylene plate (pp-plate). Perform 3-fold, 10-point dilution via transferring 15 L compound into 30 L DMSO using a TECAN (EVO200) liquid handler. • 2.2 Spin plates at room temperature at 1,000 RPM for 1 minute. • 2.3 Transfer 120 nL of diluted compound from compound source plate into the cell plate. • 2.4 After compound treatment for 72 hours, perform CTG detection for compound treatment plates as described in “Detection” section. • 3 Detection • 3.1 Plates are removed from incubators and equilibrated at room temperature for 15 minutes. • 3.2 Thaw the CellTiter Glo reagents and allow to equilibrate to room temperature before the experiment. • 3.3 Add 40 µL of CellTiter-Glo reagent into each well (at 1:1 to culture medium). Then place the plates at room temperature for 30 min followed by reading on EnVision. • 4 Data analysis • 4.1 Inhibition activity is calculated following the formula below:
(§3) [formula] • where HC is obtained from cells treated with 0.1% DMSO only; and LC is obtained from culture medium only. • 4.2 2. Calculate the IC50 by fitting the Curve using Xlfit (v5.3.1.3), equation 201:
(§4) [formula] • The IC50 date are included in Table 6.

[2] = system: BaF3 SVD (EGFR exon 20 SVD Ins D770_N771); experiment: Ba/F3 cell viability (CellTiter-Glo), EGFR exon 20 SVD Ins D770_N771; format: cell-based, murine; conditions: Mus musculus, Ba/F3 EGFR exon 20 SVD Ins D770_N771, 72 hours
Source text: as §1, §2, §3, §4

[3] = system: BaF3 NPG (EGFR exon 20 NPG Ins D770_N771); experiment: Ba/F3 cell viability (CellTiter-Glo), EGFR exon 20 NPG Ins D770_N771; format: cell-based, murine; conditions: Mus musculus, Ba/F3 EGFR exon 20 NPG Ins D770_N771, 72 hours
Source text: as §1, §2, §3, §4

BaF3 WT (EGFR WT) = experiment: Ba/F3 cell viability (CellTiter-Glo), EGFR WT; format: cell-based, murine; conditions: Mus musculus, supplemental EGF, 72 hours
Source text: as §1, §2, §3, §4

[4] = system: EGFR phosphorylation (pEGFR) in CUTO14 cells; experiment: Inhibitor activity on EGFR phosphorylation (pEGFR AlphaLISA), CUTO14 cells; format: cell-based; conditions: 2 hours
Source text: EGFR mutant Ba/F3 cells were generated by transduction with retrovirus containing vectors expressing EGFR exon 20 NPG Ins D770_N771, EGFR exon 20 ASV Ins V769_D770, or EGFR exon 20 SVD Ins D770_N771 genes along with a puromycin selection marker. Transduced cells are selected with puromycin for 7 days and are then be transferred into culture media without Interleukin 3 (IL3). Surviving cells are confirmed to express EGFR by Western blot and maintained as a pool. CUTO14 cells were obtained from Dr. Robert C. Doebele at the University of Colorado. The IC50 data are included in Table 6.
• 1 Cell seeding • 1.1 Cells are harvested from flask into cell culture medium and the cell number counted. • 1.2 Cells are diluted with culture medium to the desired density and 40 μL of cell suspension is added into each well of 384-well cell culture plate and the seeding density is 50K cells/well (Ba/F3) or 12.5K cells/well (CUTO14). • 2 Compound preparation and treatment • 2.1 Test compounds are dissolved to 10 mM in a DMSO stock solution. 45 µL of stock solution is transferred to a 384 polypropylene plate (pp-plate). Perform 3-fold, 10-point dilution via transferring 15 L compound into 30 L DMSO using a TECAN (EVO200) liquid handler. • 2.2 Spin plates at room temperature at 1,000 RPM for 1 minute. • 2.3 Transfer 5 nL of diluted compound from compound source plate into the cell plate. • 2.4 After compound treatment for 2 hours, perform pEGFR detection by AlphaLISA for compound treatment plates as described in “Detection” section. • 3 Detection by pEGFR AlphaLISA (Perkin-Elmer) • 3.1 Plates are removed from incubators and equilibrated at room temperature for 10 minutes, and media was removed • 3.2 10 µL of lysis buffer is added and plates shaken at 600 rpm for 1 hr. • 3.3 Prepare acceptor mix just before use and dispense 5 μL of acceptor mix to all the wells. […] Mix well on the shaker, seal and wrap in aluminum foil and incubate 1.5 hrs at room temperature in the dark • 3.5 Transfer 18.5 μL mixture to OptiPlate 384, and read using an Envision.

BaF3 L858R = experiment: Ba/F3 cell viability (CellTiter-Glo), EGFR L858R; format: cell-based, murine; conditions: Mus musculus, 72 hours
BaF3 Del19 = experiment: Ba/F3 cell viability (CellTiter-Glo), EGFR Del19; format: cell-based, murine; conditions: Mus musculus, 72 hours
BaF3 L858R/C797S = experiment: Ba/F3 cell viability (CellTiter-Glo), EGFR L858R/C797S; format: cell-based, murine; conditions: Mus musculus, 72 hours
[5] = system: EGFR L858R phosphorylation (pEGFR); experiment: Inhibitor activity on EGFR phosphorylation (pEGFR AlphaLISA), L858R; format: cell-based; conditions: 2 hours
[6] = system: EGFR Del19 phosphorylation (pEGFR); experiment: Inhibitor activity on EGFR phosphorylation (pEGFR AlphaLISA), Del19; format: cell-based; conditions: 2 hours
[7] = system: EGFR L858R/C797S phosphorylation (pEGFR); experiment: Inhibitor activity on EGFR phosphorylation (pEGFR AlphaLISA), L858R/C797S; format: cell-based; conditions: 2 hours
[8] = system: EGFR containing one or more mutations versus wild type EGFR; conditions: compound of WO 2022/076831; cited from earlier work

SMILES | IC50 [1] [nM] | IC50 [2] [nM] | IC50 [3] [nM] | IC50 (BaF3 WT (EGFR WT)) [nM] | IC50 [4] [nM] | IC50 (BaF3 L858R) [nM] | IC50 (BaF3 Del19) [nM] | IC50 (BaF3 L858R/C797S) [nM] | IC50 [5] [nM] | IC50 [6] [nM] | IC50 [7] [nM] | inhibition of mutant EGFR relative to wild type EGFR [8]
COCCc1c[nH]c(=O)c2c(Nc3cccc(Cl)c3OC)c(-c3ccncn3)[nH]c12 [Compound 2] | 100 to 1000 | < 100 | 100 to 1000 | ≥ 1000 | < 100 | < 100 | < 100 | < 100 | < 100 | < 100 | < 100 | 
COCCc1c[nH]c(=O)c2c(Nc3cccc(Cl)c3OC)c(-c3ccncc3F)[nH]c12 [Compound 3] | 100 to 1000 | 100 to 1000 |  | ≥ 1000 |  | < 100 | < 100 |  |  |  |  | 
COCCc1c[nH]c(=O)c2c(Nc3cccc(F)c3OC)c(-c3ccnc(C)n3)[nH]c12 [Compound 4] | 100 to 1000 | 100 to 1000 | 100 to 1000 | ≥ 1000 | < 100 |  |  | < 100 | < 100 | < 100 | < 100 | 
COCC[C@H]1CNC(=O)c2c1[nH]c(-c1ccnc(C)n1)c2Nc1cccc(Cl)c1OC [Compound 463b] |  |  |  |  |  |  |  |  |  |  |  | greater inhibition of EGFR containing one or more mutations relative to inhibition of wild type EGFR

Continued, in another order:

IC50 [1] [nM] | IC50 [2] [nM] | IC50 [3] [nM] | IC50 (BaF3 WT (EGFR WT)) [nM] | IC50 [4] [nM] | IC50 (BaF3 L858R) [nM] | IC50 (BaF3 Del19) [nM] | IC50 (BaF3 L858R/C797S) [nM] | IC50 [5] [nM] | IC50 [6] [nM] | IC50 [7] [nM] | SMILES | inhibition of mutant EGFR relative to wild type EGFR [8]
100 to 1000 | 100 to 1000 | 100 to 1000 | ≥ 1000 | 100 to 1000 | < 100 | < 100 | 100 to 1000 | < 100 | < 100 | < 100 | COc1c(Cl)cccc1Nc1c(-c2ccnc(C)n2)[nH]c2c(CCO)c[nH]c(=O)c12 [Compound 5] | 
≥ 1000 | 100 to 1000 | 100 to 1000 | ≥ 1000 |  |  |  | 100 to 1000 | 100 to 1000 | < 100 | < 100 | COc1c(F)cccc1Nc1c(-c2ccnc(C)n2)[nH]c2c(CCO)c[nH]c(=O)c12 [Compound 6] | 
